Laboratory results published in patent publication US20250163488A1, “CONJUGATION METHOD INVOLVING A TRANSGLUTAMINASE AT THE FC REGION COMPRISING A TRIMMED N-GLYCAN” (ADC THERAPEUTICS SA, priority 2022, published 2025).

Target: T1, MTGase (Streptomyces mobaraensis, UniProt P81453)
T1 sequence (P81453 77-407): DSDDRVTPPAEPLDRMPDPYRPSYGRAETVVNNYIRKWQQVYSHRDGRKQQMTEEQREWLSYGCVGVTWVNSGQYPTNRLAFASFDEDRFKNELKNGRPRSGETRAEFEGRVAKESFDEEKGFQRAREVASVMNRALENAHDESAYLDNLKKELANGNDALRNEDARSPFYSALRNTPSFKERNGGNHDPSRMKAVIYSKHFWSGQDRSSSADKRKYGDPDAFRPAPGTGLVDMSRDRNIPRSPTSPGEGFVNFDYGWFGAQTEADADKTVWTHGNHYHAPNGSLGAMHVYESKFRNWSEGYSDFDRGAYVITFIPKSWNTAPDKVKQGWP
Test: MTGase mediated conjugation of linkers to deglycosylated/trimmed antibody X, efficiency by LC-MS
Type: biochemical
Set-up: Efficiency of MTGase mediated conjugation, PNGase F Process: tested at 200 eq
Conditions: linker 200 eq., 37° C., 18 h; for Efficiency of MTGase mediated conjugation, EndoS Process: antibody X glycan trimmed with EndoS; for Efficiency of MTGase mediated conjugation, PNGase F Process: antibody X deglycosylated with PNGase F
Experimental: Antibody X (2.5 mg) was degylcosylated using PNGase F (379 KU) at an antibody concentration of 1.33 mg/mL, the digest was incubated at 37° C. for 18 h. Deglycosylated antibody X was purified by protein A chromatography followed by buffer exchange into PBS and concentration by UF/DF.
Antibody X (2.5 mg) glycans were trimmed using EndoS (12.5 μg) at an antibody concentration of 1.0 mg/mL, the digest was incubated at 37° C. for 18 h. Trimmed antibody X was purified by protein A chromatography followed by buffer exchange into PBS and concentration by UF/DF.
Solutions of linkers 1-4, 7, 8 & 11 (Table 1) were prepared in PBS. Degylcosylated/trimmed antibody X samples (0.1 mg, 2 mg/mL) were next functionalized with linkers 1-4, 7, 8 & 11 (200 eq.) via MTGase mediated conjugation using 6.7 U of enzyme per mg of antibody. The resulting reactions were incubated at 37° C. for 18 h. Functionalized antibody X samples were purified by protein A chromatography followed by buffer exchange into PBS and concentration via UF/DF. The efficiency of conjugation for the purified samples was determined by LC-MS (Table 2).

| Compound | Efficiency of MTGase mediated conjugation, EndoS Process | Efficiency of MTGase mediated conjugation, PNGase F Process |
| --- | --- | --- |
| [N-]=[N+]=NCCOCCOCCOCCNC(=O)c1ccc(C(=O)NN)cc1 [Compound 7, 4-hydrazidobenzamide-PEG(4u)-azide] | 100% | – |
| [N-]=[N+]=NCCOCCOCCOCCNC(=O)c1ccc(NN)cc1 [Compound 8, 4-hydrazinobenzamide-PEG(4u)-azide] | 84% | 91% |
| [N-]=[N+]=NCCOCCOCCOCCNC(=O)c1ccc(CC(=O)NN)cc1 [Compound 11, 4-hydrazidomethylbenzamide-PEG(4u)-azide] | 100% | – |
| amine-PEG(3u)-azide [Compound 1] | 100% | 100% |
| aminooxy-PEG(3u)-azide [Compound 2] | 84% | 95% |
| hydrazido-PEG(4u)-azide [Compound 3] | 97% | 98% |
| hydrazino-PEG(4u)-azide [Compound 4] | 86% | 89% |
